Values of other authors in patent US20070224637A1, “Oxidative protection of lipid layer biosensors” (priority 2006, published 2007).

Compound | Solubility In alcohol | Solubility In oil | Solubility In water
O[C@H](CS)[C@H](O)CS (racemic) [Dithiothreitol] | Yes | No | Yes
CC(C)(C)c1cc(CO)cc(C(C)(C)C)c1O [4-Hydroxymethyl-2,6-di-tert-butylphenol] | Yes | Yes | Yes
CC(=O)N[C@@H](CS)C(=O)O [Acetylcysteine] | Yes | No | Yes
CCCCCCCCCCCCCCCC(=O)OC[C@H](O)[C@H]1OC(=O)C(O)=C1O [Ascorbyl palmitate] | Yes | Yes | Yes
COc1ccc(O)c(C(C)(C)C)c1 [Butylated hydroxyanisole] | Yes | Yes | No
Cc1cc(C(C)(C)C)c(O)c(C(C)(C)C)c1 [Butylated hydroxytoluene] | Yes | Yes | No
O=S([O-])O.O=S([O-])O.[Ca+2] [Calcium bisulfite] |  |  | Yes
O=S([O-])[O-].[Ca+2] [Calcium sulfite] | Yes |  | Yes
N[C@@H](CS)C(=O)O [Cysteine] | Yes | No | Yes
CCCCCCCCCCCCOC(=O)c1cc(O)c(O)c(O)c1 [Dodecyl gallate] | Yes | Yes | No
CCOc1ccc2c(c1)C(C)=CC(C)(C)N2 [Ethoxyquin] |  | Yes | 
CCOC(=O)c1cc(O)c(O)c(O)c1 [Ethyl gallate] | Yes | No | Slightly
O=C(O)c1cc(O)c(O)c(O)c1 [Gallic acid] | Yes | Yes | Yes
N[C@@H](CCC(=O)N[C@@H](CS)C(=O)NCC(=O)O)C(=O)O [Glutathione] |  |  | Yes
Cc1cc2c(C(C)C)c(O)c(O)c(C=O)c2c(O)c1-c1c(C)cc2c(C(C)C)c(O)c(O)c(C=O)c2c1O [Gossypol] | Yes | Yes | No
Oc1ccc(O)cc1 [Hydroquinone] | Yes | Yes | Yes
O=[PH2]O [Hypophosphorus acid] |  |  | Yes

Compound | Solubility In alcohol | Solubility In oil | Solubility In water
OCC(O)CS (stereo not shown) [Monothioglycerol] | Yes |  | Yes
CC(Cc1ccc(O)c(O)c1)C(C)Cc1ccc(O)c(O)c1 (stereo not shown) [Nordihydroguaiaretic acid] | Yes | Yes | No
CCCCCCCCOC(=O)c1cc(O)c(O)c(O)c1 [Octyl gallate] | Yes | Yes | No
O=S([O-])S(=O)(=O)[O-].[K+].[K+] [Potassium metabisulfite] | No | No | Yes
CCCOC(=O)c1cc(O)c(O)c(O)c1 [Propyl gallate] | Yes | Slightly | Slightly
O=S([O-])O.[Na+] [Sodium bisulfite] |  | No | Yes
O=S([O-])S(=O)(=O)[O-].[Na+].[Na+] [Sodium metabisulfite] | Slightly |  | Yes
O=S([O-])[O-].[Na+].[Na+] [Sodium sulfite] | No |  | Yes
O=S=O [Sulfur dioxide] | Yes | Yes | Yes
O=C(OC[C@H]1O[C@@H](OC(=O)c2cc(O)c(O)c(OC(=O)c3cc(O)c(O)c(O)c3)c2)[C@H](OC(=O)c2cc(O)c(O)c(OC(=O)c3cc(O)c(O)c(O)c3)c2)[C@@H](OC(=O)c2cc(O)c(O)c(OC(=O)c3cc(O)c(O)c(O)c3)c2)[C@@H]1OC(=O)c1cc(O)c(O)c(OC(=O)c2cc(O)c(O)c(O)c2)c1)c1cc(O)c(O)c(OC(=O)c2cc(O)c(O)c(O)c2)c1 [Tannic acid] |  |  | Yes
OC[C@@H](O)[C@@H](O)[C@H](O)[C@@H](O)CS [Thiosorbitol] | Yes | Yes | Yes
NC(N)=S [Thiourea] | Yes | No | Yes
Cc1c(C)c2c(c(C)c1O)CC[C@@](C)(CCC[C@H](C)CCC[C@H](C)CCCC(C)C)O2 [d-α-tocopherol (syn), d-α-tocopherol] | Yes | Yes | No
Cc1c(O)cc2c(c1C)O[C@](C)(CCC[C@H](C)CCC[C@H](C)CCCC(C)C)CC2 [γ-tocopherol (syn), γ-tocopherol] | Yes | Yes | No
D-tocopherol [D-tocopherol (syn)] | Yes | Yes | No
Tocopherols |  | Yes | 
